Test results published in US9603854B2, “Indolizine compounds, a process for their preparation and pharmaceutical compositions containing them” (LES LABORATOIRES SERVIER, priority 2012, dated 2017).
Counter-ions that a name gives are not always drawn.

What was measured:
[1] = system: RS4;11 leukaemia tumour line; test: In vitro cytotoxicity (Microculture Tetrazolium Assay, 48 hours); format: cell-based; conditions: cytotoxicity for RS4;11 cells, MTT
Protocol: The cytotoxicity studies were carried out on the RS4;11 leukaemia tumour line.
The cells are distributed onto microplates and exposed to the test compounds for 48 hours.

Bcl-2 protein = Bcl-2 protein (Homo sapiens (Human), UniProt P10415); test: Inhibition of Bcl-2 by the fluorescence polarisation technique; format: binding; conditions: Bcl-2 inhibition, fluorescence polarisation test; read-out: IC50 (nM) Bcl-2 FP
Protocol: The fluorescence polarisation tests were carried out on microplates (384 wells). […] After incubation for 2 hours, the fluorescence polarisation is measured.

caspase 3 = test: Induction of caspase activity in vivo (DEVDase activity in tumour lysates, RS4;11 xenograft); design: species or system mice (SCID strain); conditions: oral treatment 50 mg/kg, RS4;11 xenograft in SCID mice, 16 hours after treatment; for fold induction at 50 mg/kg: Mus musculus, read-out: Activation factor (versus control), DEVDase activity in the tumours
Protocol: The ability of the compounds of the invention to activate caspase 3 is evaluated in a xenograft model of RS4;11 leukaemia cells.
1×10^7 RS4;11 cells are grafted sub-cutaneously into immunosuppressed mice (SCID strain). 25 to 30 days after the graft, the animals are treated orally with the various compounds. Sixteen hours after treatment, the tumour masses are recovered and lysed, and the caspase 3 activity is measured in the tumour lysates.
This enzymatic measurement is carried out by assaying the appearance of a fluorigenic cleavage product (DEVDase activity, Promega). It is expressed in the form of an activation factor corresponding to the ratio between the two caspase activities: the activity for the treated mice divided by the activity for the control mice.

Bcl-2 protein, sequence (P10415 whole entry): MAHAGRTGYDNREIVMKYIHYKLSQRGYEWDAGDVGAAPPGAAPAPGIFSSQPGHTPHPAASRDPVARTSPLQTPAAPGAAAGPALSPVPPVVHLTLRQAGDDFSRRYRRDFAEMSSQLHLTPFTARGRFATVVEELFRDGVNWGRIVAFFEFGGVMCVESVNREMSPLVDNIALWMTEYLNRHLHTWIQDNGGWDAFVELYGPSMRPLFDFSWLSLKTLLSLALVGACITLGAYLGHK

Row | Structure (SMILES) | IC50 ([1]; Homo sapiens) [nM] | IC50 (Bcl-2 protein) [nM] | IC50 [1] [nM] | further results
1 | O=C(c1cc(-c2cc3c(cc2C(=O)N2Cc4ccccc4C[C@H]2CN2CCOCC2)OCO3)n2c1CCCC2)N(c1ccc(O)cc1)c1ccc(Cl)cc1 [Example 3, N-(4-Chlorophenyl)-N-(4-hydroxyphenyl)-3-{6-[((3S)-3-(4-morpholinylmethyl)-3,4-dihydro-2(1H)-isoquinolinyl)carbonyl]-1,3-benzodioxol-5-yl}-5,6,7,8-tetrahydro-1-indolizine carboxamide hydrochloride] | 44.7 | 20 | – | fold induction at 50 mg/kg (caspase 3): 5.7
2 | O=C(c1cc(-c2cc3c(cc2C(=O)N2Cc4ccccc4C[C@H]2CN2CCOCC2)OCO3)n2c1CCCC2)N(c1ccc(O)cc1)c1ccc(O)cc1 [Example 6, N,N-bis(4-Hydroxyphenyl)-3-{6-[((3S)-3-(4-morpholinylmethyl)-3,4-dihydro-2(1H)-isoquinolinyl)carbonyl]-1,3-benzodioxol-5-yl}-5,6,7,8-tetrahydra-1-indolizine carboxamide hydrochloride] | – | – | 30 | –
3 | CCOc1ccc(C(=O)N2Cc3ccccc3C[C@H]2CN2CCOCC2)c(-c2cc(C(=O)N(c3ccc(O)cc3)c3ccc4c(ccn4C)c3)c3n2CCCC3)c1 [Example 36, 3-{5-Ethoxy-2-[((3S)-3-(4-morpholinylmethyl)-3,4-dihydro-2(1H)-isoquinolinyl)carbonyl]phenyl}-N-(4-hydroxyphenyl)-N-(1-methyl-1H-indol-5-yl)-5,6,7,8-tetrahydro-1-indolizine carboxamide hydrochloride] | 135 | – | – | –
4 | CN1CCc2cc(N(C(=O)c3cc(-c4cc(Cl)ccc4C(=O)N4Cc5ccccc5C[C@H]4CN4CCOCC4)c4n3CCCC4)c3ccc(O)cc3)ccc21 [Example 43, 1-{5-Chloro-2-[((3S)-3-(4-morpholinylmethyl)-3,4-dihydro-2(1H)-isoquinolinyl)carbonyl]phenyl}-N-(4-hydroxyphenyl)-N-(1-methyl-2,3-dihydro-1H-indol-5-yl)-5,6,7,8-tetrahydro-3-indolizine carboxamide hydrochloride] | – | 110 | – | –
5 | O=C(c1cc(-c2cc3c(cc2C(=O)N2Cc4ccccc4C[C@H]2CN2CCOCC2)OCO3)n2ccccc12)N(c1ccccc1)c1ccc(O)cc1 [Example 58, N-(4-Hydroxyphenyl)-3-{6-[((3S)-3-(4-morpholinylmethyl)-3,4-dihydro-2(1H)-isoquinolinyl)carbonyl]-1,3-benzodioxol-5-yl}-N-phenyl-1-indolizine carboxamide hydrochloride] | 40.1 | 22 | – | fold induction at 50 mg/kg (caspase 3): 23.3
6 | Cl.Cn1ccc2cc(N(C(=O)c3cc(-c4cc(Cl)ccc4C(=O)N4Cc5ccccc5C[C@H]4CN4CCOCC4)n4ccccc34)c3ccc(O)cc3)ccc21 [Example 67, 3-{5-Chloro-2-[((3S)-3-(4-morpholinylmethyl)-3,4-dihydro-2(1H)-isoquinolinyl)carhonyl]phenyl}-N-(4-hydroxyphenyl)-N-(1-methyl-1H-indol-5-yl)-1-indolizine carboxamide hydrochloride] | – | – | 17.7 | Activation factor (versus control), DEVDase activity in the tumours (caspase 3): 18.9 (50 mg/kg)
7 | Cn1ccc2cc(N(C(=O)c3cc(-c4cc5c(cc4C(=O)N4Cc6ccccc6C[C@H]4CN4CCOCC4)OCO5)n4c3CN(C(=O)OC(C)(C)C)CC4)c3ccc(O)cc3)ccc21 [Example 72] | – | 220 | 270 | –
8 | Cn1ccc2ccc(N(C(=O)c3cc(-c4cc(Cl)ccc4C(=O)N4Cc5ccccc5C[C@H]4CN4CCOCC4)n4c3CCCCC4)c3ccc(O)cc3)cc21 [Example 83, 3-{5-Chloro-2-[((3S)-3-(4-morpholinylmethyl)-3,4-dihydro-2(1H)-isoquinolinyl)carhonyl]phenyl}-N-(4-hydroxyphenyl)-N-(1-methyl-1H-indol-6-yl)-6,7,8,9-tetrahydro-5H-pyrrolo[1,2-a]azepine-1-carboxamide hydrochloride] | – | – | 41.2 | –
9 | Cn1ccc2cc(N(C(=O)c3cc(-c4cc5c(cc4C(=O)N4Cc6ccccc6C[C@H]4CN4CCOCC4)OCO5)n4c3CCC4)c3ccc(O)cc3)ccc21 [Example 96, N-(4-Hydroxyphenyl)-N-(1-meth-1H-indol-5-yl)-5-(6-{[(3S)-3-(morpholin-4-ylmethyl)-3,4-dihydroisoquinolin-2(1H)-yl]carbonyl}-1,3-benzodioxol-5-yl)-2,3-dihydro-1H-pyrrolizine-7-carboxamide hydrochloride] | – | – | 58.8 | –
